Patent US20260207717A1, “METHODS FOR TREATING INFANTILE-ONSET POMPE DISEASE IN PEDIATRIC PATIENTS” (Amicus Therapeutics, Inc., priority 2022, published 2026)
Like-named read-outs stand apart in the source and are kept apart here. One block for each compound: values may come before it.

Key:
[1] = Miglustat plasma pharmacokinetics; format: in vivo, human; settings: 130 mg to 260 mg
Protocol: At the recommended 260 mg dose, the mean Cmax was approximately 3 mcg/mL and the mean AUC was approximately 25 mcg*hr/mL. The mean time to reach the maximum concentration ranged from 2 hours to 3 hours.

clinical = settings: human, in vivo
Protocol: At 10Y7M of age, the blood of the patient was collected to gather pharmacokinetic (PK) data for their treatment that included weekly administration of 20 mg/kg ATB200 and 130 mg AT2221.
Blood sampling of the patient was conducted to gather pharmacokinetic (PK) data for their treatment that included administration of 25 mg/kg ATB200 and 195 mg AT2221 biweekly.
At 12Y5M of age, the patient has been receiving ATB200 (20 mg/kg) and AT2221 (195 mg) biweekly for 1 year. […] At this time, the PK levels of both ATB200 and AT2221 were taken from the patient.

CIMPR = CIMPR (Homo sapiens, UniProt P11717); assay: CIMPR affinity chromatography (bound vs unbound rhGAA by GAA activity); format: binding
Sequence of CIMPR (P11717 41-2491, species assumed): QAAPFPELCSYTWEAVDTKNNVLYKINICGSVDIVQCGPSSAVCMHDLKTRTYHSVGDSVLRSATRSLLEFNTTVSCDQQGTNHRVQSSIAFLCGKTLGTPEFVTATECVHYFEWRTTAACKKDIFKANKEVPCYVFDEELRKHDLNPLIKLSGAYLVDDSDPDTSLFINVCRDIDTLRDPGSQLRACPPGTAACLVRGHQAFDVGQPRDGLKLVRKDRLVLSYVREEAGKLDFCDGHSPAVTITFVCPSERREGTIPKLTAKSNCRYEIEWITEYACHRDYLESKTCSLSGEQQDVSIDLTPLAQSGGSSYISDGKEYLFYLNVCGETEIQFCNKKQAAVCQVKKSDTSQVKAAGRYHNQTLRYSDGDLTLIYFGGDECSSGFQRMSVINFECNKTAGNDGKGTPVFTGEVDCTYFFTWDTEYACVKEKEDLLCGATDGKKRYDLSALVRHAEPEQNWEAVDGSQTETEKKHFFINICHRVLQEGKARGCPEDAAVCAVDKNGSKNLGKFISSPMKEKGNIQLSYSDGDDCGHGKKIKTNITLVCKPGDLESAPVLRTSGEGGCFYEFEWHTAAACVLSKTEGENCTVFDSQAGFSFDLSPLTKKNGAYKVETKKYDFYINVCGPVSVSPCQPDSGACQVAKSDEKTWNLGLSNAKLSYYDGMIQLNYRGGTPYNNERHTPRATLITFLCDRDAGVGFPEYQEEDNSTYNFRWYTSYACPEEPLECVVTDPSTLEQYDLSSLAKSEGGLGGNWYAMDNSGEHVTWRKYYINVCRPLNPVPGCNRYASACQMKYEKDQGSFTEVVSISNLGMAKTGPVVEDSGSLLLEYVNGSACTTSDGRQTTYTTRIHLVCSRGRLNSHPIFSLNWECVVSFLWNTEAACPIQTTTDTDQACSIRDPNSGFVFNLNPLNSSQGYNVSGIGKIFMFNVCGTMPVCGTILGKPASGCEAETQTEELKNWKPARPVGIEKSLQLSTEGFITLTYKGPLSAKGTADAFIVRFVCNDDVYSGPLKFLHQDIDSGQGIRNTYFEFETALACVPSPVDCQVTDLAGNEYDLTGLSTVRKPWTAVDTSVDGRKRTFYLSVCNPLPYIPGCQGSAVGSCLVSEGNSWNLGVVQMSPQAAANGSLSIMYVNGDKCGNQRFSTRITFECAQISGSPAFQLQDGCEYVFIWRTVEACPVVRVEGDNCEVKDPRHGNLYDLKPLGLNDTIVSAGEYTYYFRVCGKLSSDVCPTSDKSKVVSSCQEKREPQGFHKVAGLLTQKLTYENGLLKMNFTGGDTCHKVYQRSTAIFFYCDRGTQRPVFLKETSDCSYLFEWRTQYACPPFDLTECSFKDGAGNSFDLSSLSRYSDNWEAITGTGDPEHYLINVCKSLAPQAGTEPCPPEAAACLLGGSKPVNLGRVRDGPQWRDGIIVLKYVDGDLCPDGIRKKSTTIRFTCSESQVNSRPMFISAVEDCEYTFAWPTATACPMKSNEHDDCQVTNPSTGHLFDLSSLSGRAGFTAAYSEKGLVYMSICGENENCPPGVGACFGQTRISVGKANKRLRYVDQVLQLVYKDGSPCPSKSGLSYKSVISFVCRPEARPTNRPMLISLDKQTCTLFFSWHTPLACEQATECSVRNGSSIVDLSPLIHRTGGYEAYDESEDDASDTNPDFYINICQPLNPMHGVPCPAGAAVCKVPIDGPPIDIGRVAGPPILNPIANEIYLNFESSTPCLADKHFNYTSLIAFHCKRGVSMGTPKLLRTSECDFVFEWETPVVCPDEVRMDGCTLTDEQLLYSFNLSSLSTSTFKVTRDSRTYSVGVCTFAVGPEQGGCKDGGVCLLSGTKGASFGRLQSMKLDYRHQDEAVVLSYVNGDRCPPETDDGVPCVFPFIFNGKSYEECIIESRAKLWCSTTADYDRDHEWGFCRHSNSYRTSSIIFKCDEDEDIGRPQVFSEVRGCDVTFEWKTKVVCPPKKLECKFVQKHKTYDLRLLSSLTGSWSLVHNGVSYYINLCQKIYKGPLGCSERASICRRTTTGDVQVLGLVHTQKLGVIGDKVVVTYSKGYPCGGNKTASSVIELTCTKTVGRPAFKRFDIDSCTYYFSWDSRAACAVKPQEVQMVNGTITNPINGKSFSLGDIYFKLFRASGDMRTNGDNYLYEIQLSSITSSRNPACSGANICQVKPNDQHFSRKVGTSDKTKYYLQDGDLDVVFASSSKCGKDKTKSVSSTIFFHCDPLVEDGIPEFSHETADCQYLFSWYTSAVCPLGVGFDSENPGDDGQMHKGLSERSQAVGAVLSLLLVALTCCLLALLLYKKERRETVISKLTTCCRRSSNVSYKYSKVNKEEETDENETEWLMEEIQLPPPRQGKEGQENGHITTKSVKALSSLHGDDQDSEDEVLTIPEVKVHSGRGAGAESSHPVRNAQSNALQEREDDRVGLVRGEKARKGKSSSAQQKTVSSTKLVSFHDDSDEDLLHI
From the text: Multiple batches of the rhGAA according to the disclosure were produced in shake flasks and in perfusion bioreactors using CHO cell line GA-ATB200, the product of which is referred to as “ATB200.” Weak anion exchange (“WAX”) liquid chromatography was used to fractionate ATB200 rhGAA according to terminal phosphate and sialic acid. Elution profiles were generated by eluting the ERT with increasing amount of salt. The profiles were monitored by UV (A280 nm).
To evaluate the ability of the conventional rhGAAs in MYOZYME® and LUMIZYME® to interact with the CIMPR, the two conventional rhGAA preparations were injected onto a CIMPR affinity column (which binds rhGAA having M6P groups) and the flow through collected. The bound material was eluted with a free M6 gradient. Fractions were collected in 96-well plate and GAA activity assayed by 4MU-α-glucosidase substrate. The relative amounts of unbound (flow through) and bound (M6P eluted) rhGAA were determined based on GAA activity and reported as the fraction of total enzyme. […] Indeed, only 27% of the rhGAA in MYOZYME® and 22% of the rhGAA in LUMIZYME® contained M6P that can be productive to target it to the CIMPR on muscle cells.

[2] = tested on: single fibers isolated from the white gastrocnemius of Gaa KO mice; assay: Single fiber analysis (LAMP1/LC3 co-immunofluorescence); format: in vivo
From the text: FIG. 17 depicts co-immunofluorescent staining of LAMP1 (green) (see for example, “B”) and LC3 (red) (see, for example, “A”) in single fibers isolated from the white gastrocnemius of Gaa KO mice treated with a vehicle, alglucosidase alfa, or ATB200. “C” depicts clearance of autophagic debris and absence of enlarged lysosome. A minimum of 30 fibers were examined from each animal.
As a result, a significant portion of muscle fibers analyzed (36-60%) from ATB200-treated mice appeared normal or near-normal.

[3] = tested on: pediatric patient with infantile Pompe disease; assay: Example 16: pediatric IOPD patient switched from Myozyme to ATB200/AT2221; format: in vivo, human
From the text: A patient with severe infantile Pompe disease presented. The patient underwent a comprehensive physical examination, measurement of GAA enzyme activity, genetic testing of the GAA gene and muscle biopsy to establish the diagnosis.
The patient received the high-dose enzyme replacement therapy with Myozyme after diagnosis. The patient responded very poorly to therapy. Due to rapidly progressing Pompe disease and inadequate response to therapy, the patient's survival was at risk. For the patient, the opportunity arose to receive the new ATB200/AT2221 ERT via a compassionate use/Expanded Access Program (EAP).
The index patient has regular measurement of the urinary Glc4-levels since the change of the ERT to ATB200. The Glc4-levels were determined by an established method from the Duke University. The analysis of Glc4 is standardized as a butyl-4-aminobenzoate derivative using [^13C6] Glc4 as the internal standard (IS). The measurement is performed as ultra-performance liquid chromatography-tandem mass spectrometry (UPLC-MS/MS). The Glc4-values are then normalized to creatinine.
The patient presented with IOPD at 6 months and was started on the standard dose of Myozyme (20 mg/kg/bi-weekly). Due to the inadequate response to therapy, the dose was doubled just one month after the start of therapy in form of a weekly administration of Myozyme. […] But the cardiological situation deteriorated progressively.
Therefore, just three months after initiation of therapy, the dose was again doubled to 40 mg/kg/weekly, so the patient received a total of four times the standard dose. With the intensification of ERT and cardiac therapy, the patient's condition initially stabilized. Nevertheless, over the next few months, the patient's general condition steadily deteriorated, and the patient decompensated, especially respiratory.
The patient was switched from Myozyme to ATB200/AT2221 after eight months of insufficient Myozyme therapy response. The patient was […] at the time of the therapy switch. The new therapy (via EAP) was initiated with the oral administration of 30 mg premedication AT2221 (Miglustat) one hour prior to enzyme administration. ATB200 was administered at a bi-weekly interval at a dosage of 20 mg/kg. In the further course of treatment, the dosage of premedication and ERT was repeatedly adjusted and optimized (see Table 22). Some actual dosages in Table 22 (e.g., 37 mg/kg and 34.5 mg/kg at 32 and 38 months, respectively) varied from the target dose (e.g., 30 mg/kg) to avoid waste of extra material left in vials.
The Gross Motor Function Measure 66 (GMFM 66) is used to quantify a patients' motor skills. The GMFM 66 is a worldwide standardized test developed and validated for children with cerebral palsy to measure the development of gross motor function over time. During testing 66 items are examined and a score from 0 to 100 points is possible.

pediatric IOPD patient [4] = format: in vivo, human
Protocol: The patient, first-born of unrelated parents […]), was born at 37 weeks by an emergency delivery due to fetal heart failure. At birth, they were resuscitated and admitted to the NICU for invasive ventilatory assistance and circulation support.
Moreover, the patient presented with severe hypotonia, elevated serum CPK (1063 U/L) and BNP ([…], nv 0-100).
At 3 days of life, an extended newborn screening resulted positive for Pompe Disease (GAA activity in DBS 0.40 μM/L, nv>3). uGlc4 was elevated (71.2 mmol/mol creatinine, nv <16.3).
At 5 days of life, the patient was treated with alglucosidase alfa (Myozyme®). Simultaneously, an immunomodulation protocol with rituximab, ev immunoglobulins and methotrexate was started. In addition, an appropriate therapy for the heart failure was started (betablocker, diuretics, ACE inhibitor).
At 2.5 years of life, they started a compassionate use/EAP therapy that combined a new ERT (cipaglucosidase 30 mg/kg/week) with an enzyme stabilizer (miglustat 115 mg) (ATB200-15 Program, Amicus Therapeutics), with clinical benefit.

pediatric IOPD patient [5] = tested on: pediatric IOPD patient
[6] = after new immunomodulation cycle, on Myozyme
[7] = worsening with high antibody titer, on Myozyme
[8] = age ~1 week, Myozyme double dose 40 mg/kg q2wk

dose proportionality of AUC and Cmax [1]: linear pharmacokinetics
AUC relative to adult percentiles (clinical): below the adult 10th percentile
Cmax relative to adult percentiles (clinical): within the adult 10th-90th percentile
AUC (clinical; AT2221 AUC): 16100 to 24600 ng·h/mL
Cmax (clinical; AT2221 Cmax): 1800 to 3130 ng/mL
Compound: CCCCN1C[C@H](O)[C@@H](O)[C@H](O)[C@H]1CO [miglustat, (2R,3R,4R,5S)-1-butyl-2-(hydroxymethyl)piperidine-3,4,5-triol, reference compound]

rhGAA that binds to the CIMPR (contains M6P) (CIMPR; fraction of total enzyme by GAA activity): 27%
rhGAA that did not bind to the CIMPR (CIMPR; fraction of total enzyme by GAA activity (FIG. 9A, 9B)): 73%
Compound: MYOZYME®: conventional rhGAA product containing alglucosidase alfa
lysosome size and autophagic buildup compared to vehicle-treated mice [2]: did not show any significant difference
motor function ([3]; 20 mg/kg/weekly): slight motor improvements
response to therapy ([3]; fourfold dose of ERT (40 mg/kg/weekly)): very poor
CPK (pediatric IOPD patient [4]; [6]): 4,728 U/L
EF (pediatric IOPD patient [4]; [6]): 48%
LVMI (pediatric IOPD patient [4]; [6]): 118 g/m2
uGlc4 (pediatric IOPD patient [4]; [6]): 35 mmol/mol crea
CPK (pediatric IOPD patient [4]; on Myozyme): 1877 u/L
EF (pediatric IOPD patient [4]; on Myozyme): 50%
uGlc4 (pediatric IOPD patient [4]; on Myozyme): 20.2 mmol/mol crea
LVMI (pediatric IOPD patient [4]; on Myozyme since day 5): 116.6 g/m2
BNP (pediatric IOPD patient [4]; [7]): 237 U/L
EF (pediatric IOPD patient [4]; [7]): 50%
LVMI (pediatric IOPD patient [4]; [7]): 229 g/m2
serum CPK, maximum (pediatric IOPD patient [4]; [7]): 6,795 U/L
uGlc4, maximum (pediatric IOPD patient [4]; [7]): 50 mmol/mol creatinine
CK (pediatric IOPD patient [5]; Myozyme 50 mg/kg q2wk): 2514-2722 U/L
CK (pediatric IOPD patient [5]; Myozyme 60 mg/kg q2wk): 3143-3625 U/L
LVEF (pediatric IOPD patient [5]; Myozyme 60 mg/kg q2wk, 2 D): 70.5%
LVMI (pediatric IOPD patient [5]; Myozyme 60 mg/kg q2wk, 2 D): 26.2 g/m^2
CK (pediatric IOPD patient [5]; Myozyme 30 then 40 mg/kg qwk): 2603 U/L
Pro-BNP (pediatric IOPD patient [5]; Myozyme 30 then 40 mg/kg qwk): 401.5 pg/mL
CK (pediatric IOPD patient [5]; [8]): 880 U/L
Glc4 (pediatric IOPD patient [5]; [8]): 41.88 mmol/mol CRE
Pro-BNP (pediatric IOPD patient [5]; [8]): 10169 pg/mL
LVMI (pediatric IOPD patient [5]; age ~1 week, Myozyme double dose 40 mg/kg q2wk, M-mode): 147 g/m^2
CK (pediatric IOPD patient [5]; change to ATB200 20 mg/kg q2w): 1444 U/L
reactions on ERT (pediatric IOPD patient [5]; human, in vivo): skin rash, dyspnea, a cough and a pale-like complexion
